Source: US20090111781A1, “Use of Cymipristone Type Compounds in Aids Treatment” (SHANGHAI THREE-ALLIANCE BIOTECHNOLOGIES CO., LTD., priority 2005, published 2009)

Legend:
[1] = target: T1, progestogen receptor (PRa) (Homo sapiens, UniProt P06401); assay: Binding activity on human nuclear receptor PR; details: mean ± SD, n = 4
T1 sequence (P06401 1-769 isoform P06401-2): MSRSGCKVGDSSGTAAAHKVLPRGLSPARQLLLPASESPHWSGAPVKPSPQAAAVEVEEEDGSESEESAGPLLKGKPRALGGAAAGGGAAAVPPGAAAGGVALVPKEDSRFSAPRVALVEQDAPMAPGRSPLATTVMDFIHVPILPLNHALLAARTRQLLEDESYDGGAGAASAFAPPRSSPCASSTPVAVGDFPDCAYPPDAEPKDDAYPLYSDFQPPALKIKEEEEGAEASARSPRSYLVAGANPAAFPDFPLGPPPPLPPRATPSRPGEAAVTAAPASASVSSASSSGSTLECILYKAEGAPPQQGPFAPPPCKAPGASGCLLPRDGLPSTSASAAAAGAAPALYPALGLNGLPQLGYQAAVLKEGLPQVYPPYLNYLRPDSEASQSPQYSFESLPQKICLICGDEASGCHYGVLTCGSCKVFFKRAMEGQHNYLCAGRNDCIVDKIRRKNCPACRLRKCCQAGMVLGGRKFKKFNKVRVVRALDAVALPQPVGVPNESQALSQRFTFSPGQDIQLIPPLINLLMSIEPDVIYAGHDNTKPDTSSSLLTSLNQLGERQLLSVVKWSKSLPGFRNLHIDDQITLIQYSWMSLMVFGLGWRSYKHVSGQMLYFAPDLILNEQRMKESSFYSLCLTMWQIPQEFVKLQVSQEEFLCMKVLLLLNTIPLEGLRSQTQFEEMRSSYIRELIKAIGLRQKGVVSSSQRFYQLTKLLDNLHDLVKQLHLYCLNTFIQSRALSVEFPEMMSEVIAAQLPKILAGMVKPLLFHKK
Protocol: (§1) Buffer solution is composed of 25 mM NaPO4, 20 mM NaMoO4, 10 mM KF and 10% glycerol (pH=7.3) and stored under 4° C. Stock solution is prepared with CHAPS and DTT and stored under −20° C. […] Add 2.5 μl/hole into 96-pore plate. Take out appropriate amount of buffer solution reserve into solution to make the final concentration of CHAPS and DDT to become 0.25 mM and 2 mM respectively. Add protease inhibitors (aprotinin and leupeptin) to make its final concentration to become 1 μg/μl, and place in an ice bath. After adding human nuclear receptor GR (1:8), PR (1:100), ER (1:2000), AR (1:200) and MR (1:40) into the reaction system respectively, adequately mix suitable quantity of [^3H]-dexamethasone, [^3H]-progesterone, [^3H]-estradiol and [^3H]-DHT (from Amersham), rapidly add into 96-pore plate (100 μl/pore) and incubate overnight under 4° C. On the next day, add 25 μl of hydroxyapatite suspension into each pore and mix with shaking. After incubating for 10 min, separate by centrifuge for 3 min at 2500 rpm. The precipitate is washed with 100 μl of buffer solution and separated by centrifuge twice. Add 150 μl of scintillation solution (from Perkin Elmer) into each pore, mix with shaking and count by MicroBeta counter.

estrogen receptor ERβ = estrogen receptor ERβ (Homo sapiens, UniProt Q92731); assay: Binding activity on human nuclear receptor ERβ; details: mean ± SD, n = 4
Sequence of estrogen receptor ERβ (Q92731 whole entry): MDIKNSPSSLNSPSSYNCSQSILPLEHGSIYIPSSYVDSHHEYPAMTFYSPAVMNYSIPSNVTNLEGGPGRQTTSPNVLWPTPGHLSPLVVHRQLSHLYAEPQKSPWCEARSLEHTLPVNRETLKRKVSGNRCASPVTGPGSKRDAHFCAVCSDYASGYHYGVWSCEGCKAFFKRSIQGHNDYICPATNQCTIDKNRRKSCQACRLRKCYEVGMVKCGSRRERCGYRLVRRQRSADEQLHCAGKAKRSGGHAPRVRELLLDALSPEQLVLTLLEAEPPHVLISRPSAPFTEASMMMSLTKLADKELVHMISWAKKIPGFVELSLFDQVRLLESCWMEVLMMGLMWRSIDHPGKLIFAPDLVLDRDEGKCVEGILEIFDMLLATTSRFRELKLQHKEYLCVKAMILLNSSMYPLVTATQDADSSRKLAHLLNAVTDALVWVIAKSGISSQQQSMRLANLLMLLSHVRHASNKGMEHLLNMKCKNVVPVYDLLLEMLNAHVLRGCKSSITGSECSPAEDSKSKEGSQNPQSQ
Protocol: as §1

[2] = target: T2, glucocorticoid receptor of rat hepatic cytoplasm (Rattus norvegicus, UniProt P06536); assay: Competition inhibition of [3H]-dexamethasone binding in rat hepatic cytoplasm
T2 construct: centrifuge at 175000 g for 1 hour, and take out the supernatant liquid as reserve; from tissue; host or cells: liver cytosol (175000 g supernatant) of adrenalectomised female SD rats
T2 sequence (P06536 1-795): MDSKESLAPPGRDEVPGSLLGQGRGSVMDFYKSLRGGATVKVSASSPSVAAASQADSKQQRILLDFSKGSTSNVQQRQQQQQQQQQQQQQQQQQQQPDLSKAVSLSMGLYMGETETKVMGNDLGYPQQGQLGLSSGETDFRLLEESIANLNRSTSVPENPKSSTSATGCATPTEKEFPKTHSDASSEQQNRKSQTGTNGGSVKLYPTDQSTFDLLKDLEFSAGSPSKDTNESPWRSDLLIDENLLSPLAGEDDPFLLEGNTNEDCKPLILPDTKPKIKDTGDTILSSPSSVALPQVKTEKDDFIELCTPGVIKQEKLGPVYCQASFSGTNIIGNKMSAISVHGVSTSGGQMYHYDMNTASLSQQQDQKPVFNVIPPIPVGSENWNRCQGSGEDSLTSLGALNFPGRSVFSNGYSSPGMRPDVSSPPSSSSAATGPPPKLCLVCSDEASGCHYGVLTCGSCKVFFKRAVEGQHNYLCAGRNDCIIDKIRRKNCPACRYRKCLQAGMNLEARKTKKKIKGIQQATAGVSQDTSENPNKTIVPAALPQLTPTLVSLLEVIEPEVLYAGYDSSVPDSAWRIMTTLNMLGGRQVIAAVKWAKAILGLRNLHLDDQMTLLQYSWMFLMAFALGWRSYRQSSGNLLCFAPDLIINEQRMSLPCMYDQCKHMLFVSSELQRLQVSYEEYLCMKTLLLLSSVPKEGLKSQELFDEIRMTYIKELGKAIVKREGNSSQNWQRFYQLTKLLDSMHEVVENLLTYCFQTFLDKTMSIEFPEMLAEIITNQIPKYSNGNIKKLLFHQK
Protocol: Clean female SD rats, body weight 200-250 g, are fed with certain quantity of food and freely drink water. The temperature is controlled at about 24° C. and an illumination cycle are for 11 hours by day and 13 hours at night. All animals are observed for 1 week before experiment. Incisions are made on two sides below arch of ribs on dorsal position of rats to extirpate adrenal glands. After operation, the rats are fed with physiological saline to maintain water-electrolyte balance. On the third day after operation, animals are acutely executed. The liver is taken out immediately and placed in ice cold buffer solution; the blood should be washed off as much as possible. Take certain quantity of tissue, add buffer solution (1:4), cut the tissue with scissors, intermittently homogenize the tissue under low temperature, centrifuge at 175000 g for 1 hour, and take out the supernatant liquid as reserve. […] Then carry out the competition inhibition experiment.

[3] = Cytotoxicity in MT-4 cell culture by cytopathic method (CPE); type: cell-based, human; details: human, MT-4 cells infected with HIV-1 IIIB, read-out: Cytotoxicity TC50, CPE
Protocol: (§2) Set virus TCID50 determination group and cell control group. Each concentration is duplicated in two pore. Incubate under 37° C., 5% CO2 and saturated humidity in an incubator. Daily observe the cytopathy in above culture plate by microscope, record the degree of cytopathy with routine method, and calculate the 50% toxic concentration (TC50) and maximum nontoxic concentration (TC0) of drug according to Reed & Muench method. […] [formula]

MT-4 cells = assay: as above; type: cell-based, human
Protocol: as §2

## CC#C[C@]1(O)CC[C@H]2[C@@H]3CCC4=CC(=O)CCC4=C3[C@@H](c3ccc(N(C)C4CCCCC4)cc3)C[C@@]21C [Cymipristone, 11β-[4-(N-methyl-N-cyclohexylamino)phenyl]-17α-(1-propynyl)-17β-hydroxyl-4,9-estradiene-3-one]
[1]
  IC50: 5.2 ± 0.26 nM
Estrogen receptor ERβ
  IC50: 278.7 ± 0.63 nM
[2]; cymipristone : mifepristone
  IC50 ratio: 1.00
[2]; dexamethasone : cymipristone : mifepristone
  RBA ratio: 5.6
[2]; dexamethasone as 100, mean ± SD, n = 4
  Relative binding activity RBA: 557.69 ± 65.23%
[2]; mean ± SD, n = 4
  IC50: 2.6 nM
[2]; tested compound 1 × 10^−7 mol/L, mean ± SD, n = 4, read-out: Inhibition rate on binding of [3H]-dexamethasone
  inhibition at 0.1 µM: 88.9 ± 9.01%
[2]; tested compound 2 × 10^−8 mol/L, mean ± SD, n = 4, read-out: Inhibition rate on binding of [3H]-dexamethasone
  inhibition at 0.02 µM: 75.6 ± 3.56%
[2]; tested compound 4 × 10^−9 mol/L, mean ± SD, n = 4, read-out: Inhibition rate on binding of [3H]-dexamethasone
  inhibition at 0.004 µM: 54.5 ± 4.24%
[2]; tested compound 5 × 10^−7 mol/L, mean ± SD, n = 4, read-out: Inhibition rate on binding of [3H]-dexamethasone
  inhibition at 0.5 µM: 95.4 ± 5.34%
[2]; tested compound 8 × 10^−10 mol/L, mean ± SD, n = 4, read-out: Inhibition rate on binding of [3H]-dexamethasone
  inhibition at 0.0008 µM: 31.2 ± 3.87%
[2]; tested compound 16 × 10^−10 mol/L, mean ± SD, n = 4, read-out: Inhibition rate on binding of [3H]-dexamethasone
  inhibition at 0.0016 µM: 17.2 ± 6.76%
[3]
  CC50: 15500 nM
MT-4 cells
  Cytotoxicity TC50, CPE: 7.704 µg/mL
